Reference: patent publication US5789440A, “5,6-dihydropyrone derivatives as protease inhibitors and antiviral agents” (Warner-Lambert Company, priority 1994, dated 1998)
≈ marks a conversion by molar mass, not a printed value. Like-named read-outs stand apart in the source and are kept apart here.

Columns and labels:
HIV-1 Protease = target: T1, HIV-1 Protease (Human immunodeficiency virus type 1 group M subtype B, UniProt P04585); experiment: HIV protease inhibition (undecapeptide substrate cleavage, HPLC); format: biochemical; conditions: 37° C., 5 min, 40 μM substrate, pH 4.7, 2% DMSO, read-out: 50% INHIBITION CONCENTRATION
T1 construct: HIV-1 Protease; purchased Bachem Bioscience Inc
Method: 1.0 mM dithiothreitol (DTT) was prepared fresh daily in 0.1% polyethylene glycol (mw 8000) 80 mM NaOAc, 160 mM NaCl, 1.0 mM EDTA, and brought to pH 4.7 with HCl.
The enzyme is obtained from Bachem Bioscience Inc. The undiluted enzyme is thawed from -80° C. and diluted 50-fold with DTT buffer. The solution is always kept at 0° C. on ice water and used in the experiment within 20 minutes after thawing.
Substrate III from Bachem Bioscience Inc. is the undecapeptide H-His-Lys-Ala-Arg-Val-Leu-p-Nitrophenylalanine-Glu-Ala-Norleucine-Ser-NH2 (>97% purity). A 200 μM stock solution in DTT buffer is prepared and stored on ice. Substrate solution is prepared fresh daily.
10 mM inhibitor (I) in dimethyl sulfoxide (DMSO) is diluted to 200 μM with DTT buffer. From the 200 μM stock solution is made a 10 μM stock solution with 2% DMSO in DTT buffer. The two inhibitor solutions are used to make final [I] =100, 50, 20, 10, 5, 2, 1, 0.5 and 0 μM with 2% DMSO in DTT buffer in each reaction well (total inhibitor volume of 50 μl).
To each reaction well is added 20 μl of substrate (final concentration of 40 μM), 50 μl of inhibitor (at a concentration such that final dilution will produce the test concentration) and 20 μl of DTT buffer. The reaction plate (96 wells) is incubated at 37° C. for at least 5 minutes.
10 μl of the diluted protease is added to the reaction well while the reaction plate is shaking. Once shaken for 10 seconds, the plate is returned to the heating block at 37° C. (final reaction volume 100 μl.)
The reaction is incubated for 5 minutes at 37° C. The reaction is stopped by placing the reaction plate on the shaker and adding 20 μl of 10% trifluoroacetic acid (TFA) and shaking for 10 seconds. The amount of proteolysis is then determined by separation of noncleaved substrate and two cleaved products with reverse-phase HPLC, while measuring absorbance at 220 nm to determine the relative peak areas of the three components. The relative peak areas are used to calculate % conversion to product as a function of inhibitor concentration. The data are plotted as % Control (the ratio of % conversion in the presence and absence of inhibitor×100) versus inhibitor concentration and fitted with the equation Y=100/1+(X/IC50)^A, where IC50 is the inhibitor concentration at 50% inhibition and A is the slope of the inhibition curve.

HIV1iiib in H9 cells = experiment: Antiviral activity in H9 cells (acute HIV-1 infection, reverse transcriptase assay); format: cell-based; conditions: read-out: Concentration for 50% Protection
Method: Using the general methods of Pauwels et al., (J. Virol. Methods, 16, 171-185, 1987) and Mann et al. (AIDS Research and Human Retroviruses, 253-255, 1989 (anti-viral assays of active HIV-1 infection were performed in the H9 cell line. Cultures were batch infected in 1 ml of RPM1 1640 media/10% fetal calf serum containing 10^5 infectious doses of HIV1iiib for an effective multiplicity of infection of 0.01. After 2 hours of viral absorption, cells were washed once and palted in 96-wellmicrotiter plates at a density of 10^4 cells per well. Test compounds were added to produce the desired concentration of drug and 0.1% DMSO in a final volume of 200 μl. Uninfected parallel cultures were maintained for XTT cytotoxicity assay at 7 days post infection. Cultures were tested for viral replication by reverse transcriptase assay at 4 and 7 days post infection.

[1] = system: Streptococcus pyogenes C203; experiment: Antibacterial activity, microtitration dilution method; format: cell-based; conditions: read-out: minimum inhibitory concentration (MIC)
Text: (§1) The compounds of the invention display antibacterial activity when tested by the microtitration dilution method as described in Heifetz, et al., Antimicr. Agents. & Chemoth. 6: 124 (1974) which is incorporated herein by reference.
(§2) By use of the above referenced method, the following minimum inhibitory concentration values (MICs in μg/mL) were obtained for representative compounds of the invention vs. clinically relevant gram positive pathogens which have become highly resistant to conventional therapy in recent years.

[2] = system: Enterococcus foecalis MGH2; experiment: as above; format: cell-based; conditions: read-out: minimum inhibitory concentration (MIC)
Text: as §1, §2

[3] = system: Streptococcus pneumonia 5V-1; experiment: as above; format: cell-based; conditions: Streptococcus pneumoniae, 5V1, read-out: minimum inhibitory concentration (MIC)
Text: as §1, §2

[4] = system: Staphylococcus aureus UC-76; experiment: as above; format: cell-based; conditions: UC76, read-out: minimum inhibitory concentration (MIC)
Text: as §1, §2

[5] = system: Staphylococcus aureus H228; experiment: as above; format: cell-based; conditions: read-out: minimum inhibitory concentration (MIC)
Text: as §1, §2

[6] = Human immunodeficiency virus 1, multiplicity of infection 0.01, 0.1% DMSO

How did the IC50 (HIV-1 Protease) turn out when “5,6-Dihydro-4-hydroxy-3-[(3-methoxyphenyl)methyl]-6-phenyl-6-(2-phenylethyl)-2H-pyran-2-one [Example 119]” was run?
The IC50 was 97 nM.

And the EC50 (HIV1iiib in H9 cells; multiplicity of infection 0.01, 0.1% DMSO)?
The EC50 was 59 µM.

`O=C1OC(c2ccccc2)CC(O)=C1SCCc1ccccc1` (racemic) [Example 2, 5,6-Dihydro-4-hydroxy-6-phenyl-3-[(2-phenylethyl)thio]-2H-pyran-2-one] was tested. Which IC50 (HIV-1 Protease) did it give?
The IC50 was 1900 nM.

For `CC(C)CC1(c2ccccc2)CC(O)=C(SCc2ccccc2)C(=O)O1` (racemic) [Example 5, 5,6-Dihydro-4-hydroxy-6-(2-methylpropyl)-6-phenyl-3-[(phenylmethyl)thio]-2H-pyran-2-one], which IC50 (HIV-1 Protease) is on record?
The IC50 was 400 nM.

`CCCCC1(c2ccc(-c3ccccc3)cc2)CC(O)=C(SCCc2ccccc2)C(=O)O1` (racemic) [Example 22, 6-[1,1'-Biphenyl]-4-yl-6-butyl-5,6-dihydro-4-hydroxy-3-[(2-phenylethyl)thio]-2H-pyran-2-one] was tested. Which IC50 (HIV-1 Protease) did it give?
The IC50 was 1100 nM.

For `CCCCC1(c2ccccc2)CC(O)=C(SCc2ccccc2)C(=O)O1` (racemic) [Example 29, 6-Butyl-5,6-dihydro-4-hydroxy-6-phenyl-3-[(phenylmethyl)thio]-2H-pyran-2-one], which IC50 (HIV-1 Protease) is on record?
Its IC50 is 260 nM.

Which IC50 (HIV-1 Protease) does the source give for `CC(C)CCC1(c2ccccc2)CC(O)=C(SCc2ccccc2)C(=O)O1` (racemic) [Example 35, 5,6-Dihydro-4-hydroxy-6-(3-methylbutyl)-6-phenyl-3-[(phenylmethyl)thio]-2H-pyran-2-one] here?
Its IC50 is 120 nM.

How did the IC50 (HIV-1 Protease) turn out when `O=C1OC(CCc2ccccc2)(c2ccccc2)CC(O)=C1SCc1ccccc1` (racemic) [Example 39, 5,6-Dihydro-4-hydroxy-6-phenyl-6-(2-phenylethyl)-3-[(phenylmethyl)thio]-2H-pyran-2-one] was run?
The IC50 was 50 nM.

With `O=C1OC(CCc2ccccc2)(c2ccccc2)CC(O)=C1SCCc1ccccc1` (racemic) [Example 40, 5,6-Dihydro-4-hydroxy-6-phenyl-6-(2-phenylethyl)-3-[(2-phenylethyl)thio]-2H-pyran-2-one] as the compound, how does the IC50 (HIV-1 Protease) read?
The IC50 was 60 nM.

Which IC50 (HIV-1 Protease) does the source give for `O=C1OC(CCc2ccc(Cl)c(Cl)c2)(c2ccccc2)CC(O)=C1SCc1ccccc1` (racemic) [Example 44, 6-[2-(3,4-Dichlorophenyl)ethyl]-5,6-dihydro-4-hydroxy-6-phenyl-3-[(phenylmethyl)thio]-2H-pyran-2-one] here?
The IC50 was 320 nM.

With `O=C1OC(CC2CCCC2)(c2ccccc2)CC(O)=C1SCc1ccccc1` (racemic) [Example 50, 6-Cyclopentylmethyl-5,6-dihydro-4-hydroxy-6-phenyl-3-[(phenylmethyl)thio]-2H-pyran-2-one] as the compound, how does the IC50 (HIV-1 Protease) read?
Its IC50 is 88 nM.

Which IC50 (HIV-1 Protease) does the source give for `O=C1OC2(CCCc3ccccc32)CC(O)=C1SCc1ccccc1` (racemic) [Example 52, 3,4-Dihydro-4'-hydroxy-5'-[(phenylmethyl)thio]-spiro[naphthalene-1(2H),2'-[2H]pyran]-6'(3'H)-one] here?
The IC50 was 2000 nM.

Which IC50 (HIV-1 Protease) does the source give for `O=C(O)CCCCC1(c2ccccc2)CC(O)=C(SCCc2ccccc2)C(=O)O1` (racemic) [Example 56, 5-(3,6-Dihydro-4-hydroxy-6-oxo-2-phenyl-5-[(2-phenylethyl)thio]-2H-pyran-2-yl)pentanoic acid] here?
The IC50 was 5 nM.

Which IC50 (HIV-1 Protease) does the source give for `O=C1OC(c2ccccc2)(c2ccncc2)CC(O)=C1SCCc1ccccc1` (racemic) [Example 57, 5,6-Dihydro-4-hydroxy-6-phenyl-3-[(2-phenylethyl)thio]-6-pyridin-4-yl-2H-pyran-2-one] here?
Its IC50 is 650 nM.

With `O=C(CCCC1(c2ccccc2)CC(O)=C(SCc2ccccc2)C(=O)O1)NCc1ccccc1` (racemic) [Example 61, N-Benzyl-4-(3,6-dihydro-4-hydroxy-6-oxo-2-phenyl-5-[(phenylmethyl)thio]-2H-pyran-2-yl)butyramide] as the compound, how does the IC50 (HIV-1 Protease) read?
Its IC50 is 220 nM.

For `O=C1OC(CCc2ccccc2)(c2ccccc2)CC(O)=C1Sc1ccccc1` (racemic) [Example 71, 5,6-Dihydro-4-hydroxy-6-phenyl-6-(2-phenylethyl)-3-phenylthio-2H-pyran-2-one], which IC50 (HIV-1 Protease) is on record?
The IC50 was 100 nM.

How did the MIC [1] turn out when `CC(C)c1ccccc1SC1=C(O)CC(CCc2ccccc2)(c2ccccc2)OC1=O` (racemic) [Example 72, 5,6-Dihydro-4-hydroxy-3-(2-isopropylphenylthio)-6-phenyl-6-(2-phenylethyl)-2H-pyran-2-one] was run?
Its MIC is 25 µg/mL (≈ 56.2 µM).

What about the MIC [2] of the same compound?
Its MIC is 100 µg/mL (≈ 225 µM).

What about the MIC [3] of the same compound?
The MIC was 25 µg/mL (≈ 56.2 µM).

And the MIC [4]?
The MIC was 25 µg/mL (≈ 56.2 µM).

And the MIC [5]?
The MIC was 25 µg/mL (≈ 56.2 µM).

`CC(C)CCC1(c2ccccc2)CC(O)=C(Sc2ccccc2C(C)C)C(=O)O1` (racemic) [Example 75, 5,6-Dihydro-4-hydroxy-6-(3-methylbutyl)-6-phenyl-3-(2-isopropyl-phenylthio)-2H-pyran-2-one] was tested. Which IC50 (HIV-1 Protease) did it give?
Its IC50 is 28 nM.

How did the IC50 (HIV-1 Protease) turn out when `Cc1ccc(C)c(CSC2=C(O)CC(CCc3ccccc3)(c3ccccc3)OC2=O)c1` (racemic) [Example 90, 5,6-Dihydro-4-hydroxy-3-[(2,5-dimethylphenyl)methylthio]-6-phenyl-6-(2-phenylethyl)-2H-pyran-2-one] was run?
Its IC50 is 140 nM.

`O=C1OC(CCc2ccccc2)(c2ccccc2)CC(O)=C1SCc1ccccc1-c1ccccc1` (racemic) [Example 92, 3-(Biphenyl-2-ylmethylthio)-5,6-dihydro-4-hydroxy-6-phenyl-6-(2-phenylethyl)-2H-pyran-2-one] was tested. Which IC50 (HIV-1 Protease) did it give?
Its IC50 is 270 nM.

Which IC50 (HIV-1 Protease) does the source give for `CC(C)CCC1(c2ccccc2)CC(O)=C(SCc2ccccc2Cl)C(=O)O1` (racemic) [Example 94, 3-(2-Chlorophenylmethylthio)-5,6-dihydro-4-hydroxy-6-(3-methylbutyl)-6-phenyl-2H-pyran-2-one] here?
The IC50 was 220 nM.

And the EC50 (HIV1iiib in H9 cells; [6])?
Its EC50 is 29 µM.

How did the IC50 (HIV-1 Protease) turn out when `CC(C)CCC1(c2ccccc2)CC(O)=C(SCc2ccccc2-c2ccccc2)C(=O)O1` (racemic) [Example 95, 3-(Biphen-2-ylmethylthio)-5,6-dihydro-4-hydroxy-6-(3-methylbutyl)-6-phenyl-2H-pyran-2-one] was run?
The IC50 was 1090 nM.

And the EC50 (HIV1iiib in H9 cells; [6])?
The EC50 was 39 µM.

For `O=C1OC(c2ccc(OCc3ccccc3)cc2)CC(O)=C1SCCc1ccccc1` (stereo not shown) [Example 14], which IC50 (HIV-1 Protease) is on record?
The IC50 was 2500 nM.

`O=C1OC(c2ccccc2)(c2ccccc2)CC(O)=C1SCc1ccccc1` [Example 37, 5,6-Dihydro-4-hydroxy-6,6-diphenyl-3-[(phenylmethyl)thio]-2H-pyran-2-one] was tested. Which IC50 (HIV-1 Protease) did it give?
The IC50 was 260 nM.

`O=C1OC(c2ccccc2)(c2ccccc2)CC(O)=C1CCCc1ccccc1` [Example 66, 5,6-Dihydro-4-hydroxy-6,6-diphenyl-3-(3-phenylpropyl)-2H-pyran-2-one] was tested. Which IC50 (HIV-1 Protease) did it give?
The IC50 was 390 nM.

For `Cc1cccc(SC2=C(O)CC(c3ccccc3)(c3ccccc3)OC2=O)c1` [Example 70, 5,6-Dihydro-4-hydroxy-3-(3-methylphenylthio)-6,6-diphenyl-2H-pyran-2-one], which IC50 (HIV-1 Protease) is on record?
The IC50 was 110 nM.

With `O=C1OC(CCc2ccccc2)(c2ccccc2)CC(O)=C1Cc1ccccc1C(F)(F)F` (stereo not shown) [Example 114, 5,6-Dihydro-4-hydroxy-6-phenyl-6-(2-phenylethyl)-3-[(2-trifluoromethylphenyl)methyl]-2H-pyran-2-one] as the compound, how does the IC50 (HIV-1 Protease) read?
Its IC50 is 79 nM.

What about the EC50 (HIV1iiib in H9 cells; [6]) of the same compound?
The EC50 was 26 µM.
